Laboratory results: US12448363B2, “Kinase inhibitors” (Vidya Therapeutics, Inc., priority 2020, dated 2025)

Each compound was assayed against BTK (Homo sapiens, UniProt Q06187) (assay: Assay to determine BTK inactivation rate in human whole blood (ELISA of unoccupied BTK)). Settings: 37° C., 5, 15, 30, 60 minutes.
Chain of BTK (Q06187 whole entry): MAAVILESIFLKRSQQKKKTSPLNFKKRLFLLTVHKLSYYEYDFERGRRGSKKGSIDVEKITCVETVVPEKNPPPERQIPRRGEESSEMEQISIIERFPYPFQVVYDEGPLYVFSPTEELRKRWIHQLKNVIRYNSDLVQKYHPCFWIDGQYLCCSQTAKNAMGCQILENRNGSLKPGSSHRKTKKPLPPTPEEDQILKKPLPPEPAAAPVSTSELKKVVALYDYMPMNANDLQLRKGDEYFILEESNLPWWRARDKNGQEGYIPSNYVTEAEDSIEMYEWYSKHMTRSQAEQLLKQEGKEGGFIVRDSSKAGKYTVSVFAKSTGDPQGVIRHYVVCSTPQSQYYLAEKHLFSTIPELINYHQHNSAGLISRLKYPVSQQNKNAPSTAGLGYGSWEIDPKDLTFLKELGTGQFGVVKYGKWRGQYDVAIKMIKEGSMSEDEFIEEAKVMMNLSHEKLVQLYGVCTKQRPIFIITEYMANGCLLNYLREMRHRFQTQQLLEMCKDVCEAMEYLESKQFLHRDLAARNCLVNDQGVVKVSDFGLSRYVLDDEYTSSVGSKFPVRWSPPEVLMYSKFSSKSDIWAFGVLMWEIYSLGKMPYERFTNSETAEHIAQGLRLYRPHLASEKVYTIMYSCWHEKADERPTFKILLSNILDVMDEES
Type: cell-based
Design: Human whole blood is obtained from StemExpress; tissue StemExpress; host or cells: human whole blood
Protocol: Human Whole Blood Compound Treatment and Lysis
Human whole blood is obtained from StemExpress and kept at ambient temperature until the time of the experiment. […] This is prepared fresh each experimental day. […] Compounds are reconstituted to stocks of 10 mM and are diluted in two-fold serial dilutions to generate an 8-point curve in DMSO, with the last point being DMSO only, creating a 100× dilution series. A working 10× dilution series is created using 1.0 μL of the prepared DMSO titration, 100×, into […] 1×PBS in order to keep the DMSO constant. The human whole blood is added in the volume of 225 μL per well in a new 96w v-bottom plate, where one column of eight wells is sufficient for testing one compound. For compound treatment, 25 μL of 10× dilution series in PBS is added to the 225 μL whole blood, followed by briefly pipetting up and down twice. The plates are covered with lids and incubated at 37° C. for 5, 15, 30, 60 minutes. At each timepoint, 30 μL of treated blood is pulled from each column and added to preloaded collection plates that contain 30 μL of supplemented lysis buffer and mixed briefly. The collected and lysed samples shake on rotator for 60 minutes at room temperature. These samples are used fresh for detection via ELISA, and remaining sample is frozen at −80° C. if a repeat is necessary.
ELISA: Determining Amount of Unoccupied BTK
All streptavidin pre-coated plates (R&D Systems, #CP004) are brought to room temperature while samples are lysing. Assay Buffer 1, 1×PBS+0.05% Tween 20+1% BSA is prepared and stored at 4° C. when not in use. Using this Assay Buffer, assay buffer+1× protease/phosphatase inhibitor cocktail (PICs) is prepared in the amount needed for all samples. Assay Buffer+PICs in the volume of 90 μL/well is added to the ELISA plate. Lysed blood sample (10 μL) is added to the ELISA plate. BTK recombinant protein dilutions are prepared in assay buffer+PICS for use as a μM). The standard is loaded into the ELISA plate at 100 μL/well, in duplicate. These samples and standards remain in the plate, sealed, overnight at 4° C. The following day, the plate is washed four times with 1× Wash Buffer (1×PBS+0.05% Tween 20) using a plate washer. The plate is inverted to expel all fluid each time and blotted on clean paper towels to remove remaining liquid. Assay Buffer 2 is prepared (1×PBS+0.05% Tween 20+0.05% BSA) and kept at 4° C. when not in use. […] Diluted a-BTK antibody is added at 100 μl/well. The plate is covered with adhesive film and incubated for 90 minutes at room temperature. The plate is washed four times with 1× Wash Buffer (1×PBS+0.05% Tween 20) using a plate washer. The plate is inverted to expel all fluid each time and blotted on clean paper towels to remove remaining liquid. […] The diluted antibody is added at 100 μl/well. The plate is covered with adhesive film and incubated for one hour at room temperature. The plate is washed four times with 1× Wash Buffer using a plate washer. The plate is inverted to expel all fluid each time and blotted on clean paper towels to remove remaining liquid. […] The plate is incubated at room temperature in the dark for −5-10 minutes. The reaction is stopped by adding 50 μl/well 2N sulfuric acid (H2SO4) (R&D Systems, #DY994). The plate is read in a plate reader at the wavelengths […] and 570 nm (correction wavelength). Using Graphpad Prism, an XY table+graph is created, listing 0-60 minutes as X axis and concentration as Y axis. A One Phase Decay model fit is applied to the data. Checking Results table, the K values are obtained and new XY table+graph are created. Concentration is assigned to the X axis and K values from first analysis are entered. The Michaelis-Menten equation is applied to the data.
In the case of `C=CC(=O)N1CCC2CCN(c3c(F)cc(C(N)=O)c4[nH]c(C)c(C)c34)CC21` (single isomer, unassigned) [Compound 32b, 4-(1-acryloyloctahydro-6H-pyrrolo[2,3-c]pyridin-6-yl)-5-fluoro-2,3-dimethyl-1H-indole-7-carboxamide], the “BTK hWB Kinact/Ki” value was “C (a Kinact/Ki<1×10^−4 nM^−1 min^−1)”.

Same assay, conditions: 37° C., 5, 15, 30, 60 minutes, read-out: BTK hWB Kinact/Ki
For `C=CC(=O)N1CCc2c(-c3c(F)cc(C(N)=O)c4[nH]c(C)c(Cl)c34)cccc2C1C` (racemic) [Compound 22a, 4-(2-acryloyl-1-methyl-1,2,3,4-tetrahydroisoquinolin-5-yl)-3-chloro-5-fluoro-2-methyl-1H-indole-7-carboxamide], the kinact/KI was 1670 to 16700 M⁻¹ s⁻¹. Work on `C=CC(=O)N1CCC2CCN(c3c(F)cc(C(N)=O)c4[nH]c(C)c(Cl)c34)CC21` (racemic) [Compound 29, 4-(1-acryloyloctahydro-6H-pyrrolo[2,3-c]pyridin-6-yl)-3-chloro-5-fluoro-2-methyl-1H-indole-7-carboxamide] yielded a kinact/KI of 1670 to 16700 M⁻¹ s⁻¹. Work on `C=CC(=O)N1CCc2c(cccc2-c2c(F)cc(C(N)=O)c3[nH]c(C)c(Cl)c23)C1` (single isomer, unassigned) [Compound 20b] yielded a kinact/KI of 1670 to 16700 M⁻¹ s⁻¹. With `C=CC(=O)N1CCC2CCN(c3c(F)cc(C(N)=O)c4[nH]c(C)c(Cl)c34)CC21` (single isomer, unassigned) [Compound 29a, 4-(1-acryloyloctahydro-6H-pyrrolo[2,3-c]pyridin-6-yl)-3-chloro-5-fluoro-2-methyl-1H-indole-7-carboxamide] the kinact/KI was under 1670 M⁻¹ s⁻¹. In the case of `C=CC(=O)N1CCC=C(c2c(F)cc(C(N)=O)c3[nH]c(C)c(Cl)c23)C1` [Compound 1, 4-(1-acryloyl-1,2,5,6-tetrahydropyridin-3-yl)-3-chloro-5-fluoro-2-methyl-1H-indole-7-carboxamide], the kinact/KI was over 16700 M⁻¹ s⁻¹. In the case of `C=CC(=O)N1CCC[C@@H](c2c(F)cc(C(N)=O)c3[nH]c(C)c(Cl)c23)C1` [Compound 2a, (S)-4-(1-acryloylpiperidin-3-yl)-3-chloro-5-fluoro-2-methyl-1H-indole-7-carboxamide], the kinact/KI was over 16700 M⁻¹ s⁻¹. `C=CC(=O)N1CCC[C@H](c2c(F)c(F)c(C(N)=O)c3[nH]c(C)c(F)c23)C1` [Compound 6a, (R)-4-(1-acryloylpiperidin-3-yl)-3,5,6-trifluoro-2-methyl-1H-indole-7-carboxamide] gave a kinact/KI of over 16700 M⁻¹ s⁻¹. With `C=CC(=O)N1CCC[C@@H](c2c(F)c(F)c(C(N)=O)c3[nH]c(C)c(F)c23)C1` [Compound 6b, (S)-4-(1-acryloylpiperidin-3-yl)-3,5,6-trifluoro-2-methyl-1H-indole-7-carboxamide] the kinact/KI was over 16700 M⁻¹ s⁻¹. With `C=CC(=O)N1CCC[C@@H](c2c(F)c(F)c(C(N)=O)c3[nH]c(C)c(Cl)c23)C1` [Compound 16, (S)-4-(1-acryloylpiperidin-3-yl)-3-chloro-5,6-difluoro-2-methyl-1H-indole-7-carboxamide] the kinact/KI was over 16700 M⁻¹ s⁻¹. Work on `CC#CC(=O)N[C@H]1C[C@@H](F)CN(c2c(F)cc(C(N)=O)c3[nH]c(C)c(Cl)c23)C1` [Compound 27, 4-((3S,5R)-3-(but-2-ynamido)-5-fluoropiperidin-1-yl)-3-chloro-5-fluoro-2-methyl-1H-indole-7-carboxamide] yielded a kinact/KI of 1670 to 16700 M⁻¹ s⁻¹. With `CC#CC(=O)N[C@H]1C[C@@H](F)CN(c2c(F)cc(C(N)=O)c3[nH]c(C)c(C)c23)C1` [Compound 33, 4-((3S,5R)-3-(but-2-ynamido)-5-fluoropiperidin-1-yl)-5-fluoro-2,3-dimethyl-1H-indole-7-carboxamide] the kinact/KI was over 16700 M⁻¹ s⁻¹. With `CC#CC(=O)N[C@H]1C[C@H](F)CN(c2c(F)cc(C(N)=O)c3[nH]c(C)c(C)c23)C1` [Compound 35, 4-((3S,5S)-3-(but-2-ynamido)-5-fluoropiperidin-1-yl)-5-fluoro-2,3-dimethyl-1H-indole-7-carboxamide] the kinact/KI was over 16700 M⁻¹ s⁻¹. For `CC#CC(=O)N1CCCC2CN(c3c(F)cc(C(N)=O)c4[nH]c(C)c(Cl)c34)CC21` (centres unmarked) [Compound 40, 4-(1-(but-2-ynoyl)octahydro-6H-pyrrolo[3,4-b]pyridin-6-yl)-3-chloro-5-fluoro-2-methyl-1H-indole-7-carboxamide], the kinact/KI was under 1670 M⁻¹ s⁻¹.
